Laboratory results as given in US20190231748A1, “COMPOSITION FOR VAGINA AND ANTIMICROBIAL AGENT COMBINATION FOR USE IN PREPARING COMPOSITION FOR VAGINA” (Shenzhen Eulikan Biotechnology Co., Ltd., priority 2016, published 2019).

How the values were obtained:
Assay type in all cases: cell-based
[1] = system: nine strains of Candida albicans; assay: Growth of Candida in enrichment broth after 24 hours, clinical strains; details: agent alone, broth pH 4.5, 37° C. 24 hours
Excerpt: b. Enrichment broth: which contained 1 percent of yeast extract powder, 9 percent of sucrose, 0.025 percent of manganese sulfate (MnSO4.4H2O), 0.058 percent of magnesium sulfate (MgSO4.7H2O), and 0.9 percent of lactic acid, the pH value of the broth was adjusted to 4.5, and the enrichment broth was sterilized for later use;
(2) Experimental groups: the requirements of aseptic operation technique were strictly followed so to prepare the sterile test tubes;
a. sodium benzoate group: each test tube contained 5 milliliters enrichment broth, and was added in 0.025 percent (weight/volume) of sodium benzoate;
b. 2-phenylethanol group: each test tube contained 5 milliliters enrichment broth, and was added in 0.050 percent (weight/volume) of 2-phenylethanol;
c. sodium propionate group: each test tube contained 5 milliliters enrichment broth, and was added in 0.125 percent (weight/volume) of sodium propionate;
d. “a group of the combinations of sodium benzoate and sodium propionate”: each test tube contained 5 milliliters enrichment broth, and was added in 0.025 percent (weight/volume) of sodium benzoate and 0.125 percent (weight/volume) of sodium propionate;
e. “a group of the combinations of sodium benzoate and 2-phenylethanol”: each test tube contained 5 milliliters enrichment broth, and was added in 0.025 percent (weight/volume) of sodium benzoate and 0.050 percent (weight/volume) of 2-phenylethanol;
f. “a group of the combinations of sodium propionate and 2-phenylethanol”: each test tube contained 5 milliliters enrichment broth, and was added in 0.125 percent (weight/volume) of sodium propionate and 0.050 percent (weight/volume) of 2-phenylethanol;
g. “a group of the combinations of sodium benzoate, sodium propionate and 2-phenylethanol”: each test tube contained 5 milliliters enrichment broth, and was added in 0.025 percent (weight/volume) of sodium benzoate, 0.125 percent (weight/volume) of sodium propionate and 0.050 percent (weight/volume) of 2-phenylethanol;
h. positive control: the control tube of enrichment broth without adding in 2-phenylethanol, sodium benzoate, and sodium propionate; but inoculated the suspension of Candida albicans;
i. negative control: the control tube of enrichment broth without adding in 2-phenylethanol, sodium benzoate, and sodium propionate; and without inoculating Candida albicans;
The requirements for aseptic operation technique were strictly followed to prepare the suspension of organism. The colonies of each strain of Candida albicans organism were diluted with physiological saline respectively. The turbidities of the suspensions of Candida albicans organism were adjusted to 0.5 MCF (about 10^8 CFU/ml) by a turbidimeter. 1 milliliter of the 0.5 MCF organism suspension was added into 9 milliliters of enrichment broth. Each suspension was diluted for ten times to contain 10^7 CFU/ml of organisms.
the requirements for aseptic technique were strictly followed to take 100 microliters of the prepared organism suspension respectively and to add the suspension into the test tubes from a to h as well as the positive control tube. No organism suspension was added into the negative control tube i.
The above tubes were cultured in a biochemical incubator at 37° C. for 24 hours. Then the growth of Candida in each tube was observed and recorded.
Remark: “+” means the growth of organisms; “−” means no growth of organisms.

Lactobacillus jensenii = assay: Gram-stained smear of co-culture gel, Gram-positive rods (G+b); details: for Smear G^+b: cultivated 32 hours
Excerpt: (§1) 2.1 Experimental strains: one Lactococcus lactis strain and one Lactobacillus jensenii strain, both were clinical isolates.
(§2) The pH value was adjusted to 5.0.
(§3) 2.4 Experimental procedure: the test gel tubes containing different concentrations of antimicrobial agents, as shown in Tables 1 to 6 were inoculated with 100 microliters of Lactobacillus lactis suspension and 100 microliters of Lactobacillus jensenii suspension at the same time. The turbidities of both suspensions were 0.5 MCF. Then the tubes were cultivated at 37° C. and under 5 percent CO2 for 32 hours. Then the changes of the pH values of gels were tested. The gels were smeared, Gram stained, and microscopically examined for the morphology and quantity of bacteria.

[2] = system: Lactococcus lactis and Lactobacillus jensenii; assay: pH of test gel after co-culture of Lactococcus lactis and Lactobacillus jensenii; details: cultivated 32 hours
Excerpt: as §1, §2, §3

OCCc1ccccc1 [2-phenylethanol]
number of the nine Candida albicans strains that grew ([1]; 0.050 percent (weight/volume)): seven | Smear G^+b (Lactobacillus jensenii; 0.15 % in test gel): G^+b+ | Smear G^+b (Lactobacillus jensenii; 0.2 % in test gel): G^+b+ | Smear G^+b (Lactobacillus jensenii; 0.25 % in test gel): G^+b+ | Smear G^+b (Lactobacillus jensenii; 0.3 % in test gel): G^+b+ | Smear G^+b (Lactobacillus jensenii; 0.35 % in test gel): G^+b+++ | inhibition effect on the growth of Lactobacillus (Lactobacillus jensenii; 0.35 to 0.45 percent): weaker inhibition effect | Smear G^+b (Lactobacillus jensenii; 0.4 % in test gel): G^+b++ | Smear G^+b (Lactobacillus jensenii; 0.45 % in test gel): G^+b++ | Smear G^+b (Lactobacillus jensenii; 0.5 % in test gel): G^+b+ | pH value ([2]; 0.15 % in test gel): <3.8 | pH value ([2]; 0.2 % in test gel): <3.8 | pH value ([2]; 0.25 % in test gel): <3.8 | pH value ([2]; 0.3 % in test gel): <3.8 | pH value ([2]; 0.35 % in test gel): 3.8-4.1 | pH value ([2]; 0.4 % in test gel): 4.4 | pH value ([2]; 0.45 % in test gel): 4.6 | pH value ([2]; 0.5 % in test gel): 4.8

CCC(=O)[O-].[Na+] [sodium propionate]
number of the nine Candida albicans strains that grew ([1]; 0.125 percent (weight/volume)): six | Smear G^+b (Lactobacillus jensenii; 0.1 % in test gel): G^+b+ | Smear G^+b (Lactobacillus jensenii; 0.2 % in test gel): G^+b+ | Smear G^+b (Lactobacillus jensenii; 0.3 % in test gel): G^+b+ | Smear G^+b (Lactobacillus jensenii; 0.4 % in test gel): G^+b++ | inhibition effect on the growth of Lactobacillus (Lactobacillus jensenii; 0.4 to 0.6 percent): weaker inhibition effect | Smear G^+b (Lactobacillus jensenii; 0.5 % in test gel): G^+b++ | Smear G^+b (Lactobacillus jensenii; 0.6 % in test gel): G^+b++ | Smear G^+b (Lactobacillus jensenii; 0.7 % in test gel): G^+b+ | pH value ([2]; 0.1 % in test gel): 3.8 | pH value ([2]; 0.2 % in test gel): 3.8 | pH value ([2]; 0.3 % in test gel): 3.8 | pH value ([2]; 0.4 % in test gel): 4.4 | pH value ([2]; 0.5 % in test gel): 4.4-4.6 | pH value ([2]; 0.6 % in test gel): 4.6 | pH value ([2]; 0.7 % in test gel): 4.8
